In PMC8252026, “Photochemical Probe Identification of a Small‐Molecule Inhibitor Binding Site in Hedgehog Acyltransferase (HHAT)” (Angewandte Chemie (International Ed. in English), 2021):
pIC50, pKi: −log10 of the molar value. Entries after “also recorded” stand apart in the source; their conditions may differ.

Columns and labels:
human HHAT [1] = target: T1, human HHAT (Homo sapiens, UniProt Q5VTY9); experiment: Acyl-cLIP assay, dose-response inhibition of purified HHAT; format: biochemical; conditions: for HHAT inhibition (in words) / pIC50: purified HHAT; for HHAT inhibition (in words): Acyl-cLIP; for pIC50: real-time Acyl-cLIP, mean and 95 % CI, n=3
T1 construct: Full-length human HHAT (UniProt Q5VTY9); made in house
T1 sequence (Q5VTY9 whole entry): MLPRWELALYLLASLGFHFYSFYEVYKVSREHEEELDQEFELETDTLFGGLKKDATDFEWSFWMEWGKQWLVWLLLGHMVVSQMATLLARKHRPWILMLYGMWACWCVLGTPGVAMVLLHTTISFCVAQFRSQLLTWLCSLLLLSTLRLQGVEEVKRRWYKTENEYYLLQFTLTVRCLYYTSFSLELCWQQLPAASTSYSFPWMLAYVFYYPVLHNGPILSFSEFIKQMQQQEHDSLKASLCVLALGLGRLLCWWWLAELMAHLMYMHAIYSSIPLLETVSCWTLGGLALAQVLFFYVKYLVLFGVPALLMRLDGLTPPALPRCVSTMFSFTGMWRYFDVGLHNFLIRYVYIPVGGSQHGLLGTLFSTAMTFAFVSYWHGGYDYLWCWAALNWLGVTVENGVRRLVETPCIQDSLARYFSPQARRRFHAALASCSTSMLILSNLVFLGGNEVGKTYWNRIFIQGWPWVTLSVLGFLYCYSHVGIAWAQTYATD
Experimental: We recently reported the acylation‐coupled lipophilic induction of polarization (Acyl‐cLIP) assay, a facile and universally applicable method to monitor enzymes processing lipid post‐translational modifications which uses the hydrophobicity increase on lipidation to drive a polarized fluorescence readout. ^[15] Dose‐response analysis of inhibition of purified HHAT was conducted using real‐time Acyl‐cLIP analysis (Table 1).
AMBIC (ammonium bicarbonate); CDI (1,1’-carbonyldiimidazole); DCM (dichloromethane); DDM (n-dodecyl-β-D-maltopyranoside); DIPEA (N,N-diisopropylethylamine); DMF (dimethylformamide); DTT (dithiothreitol); EDTA (ethylenediaminetetraacetic acid); FAM (5/6-carboxyfluorescein); HEPES (4-(2-hydroxyethyl)-1-piperazineethanesulfonic acid); HOBt (hydroxybenzotriazole); TBME (tert-butyl methyl ether); TBTA (tris[(1-benzyl-1H-1,2,3-triazol-4-yl)methyl]amine); TCEP (tris(2-carboxyethyl)phosphine hydrochloride); TEA (triethylamine); TFA (trifluoroacetic acid); THF (tetrahydrofuran); TRIS (tris(hydroxymethyl)aminomethane).
All reagents were purchased from commercial sources (Sigma-Aldrich, Fisher Scientific, Acros Organics, Novabiochem) and used without further purification.
Pal-CoA (Sigma Aldrich) was stored in NaOAc (0.1 M, pH 6.0) at -80 °C. RUSKI-201 (1) was synthesised as previously described.[1b] The peptide comprising of residues 24-43 of SHH (residues 1-10 of the mature protein) labelled with 5/6-carboxyfluorescein (SHH-FAM) was prepared as previously described.
Mixtures described as % represent v/v unless otherwise stated.
Biological and Biochemical Methods
Full-length human HHAT (UniProt Q5VTY9) C -terminally fused with a 1D4 epitope tag was expressed and purified via antibody purification with Rho -1D4 antibody (University of British Columbia) coupled to CNBr-activated sepharose beads (GE Healthcare) as previously described.[9] Purified HHAT 0.1-0.2 mg/mL in storage buffer (10 mM HEPES, 150 mM NaCl, 5% glycerol, 0.025% (w/v) DDM, 0.0006% (w/v) cholesterol-hemisuccinate, pH 7.5) was flash-frozen in liquid nitrogen and stored at -80 °C.
The Acylation-coupled Lipophilic Induction of Polarisation (Acyl -cLIP) was performed as previously described,[9] using Rho-1D4 antibody purified HHAT. Briefly, HHAT was diluted to 45 µg/mL in solubilisation buffer (20 mM HEPES, 350 mM NaCl, 1% (w/v) DDM, 5% glycerol, pH 7.3) added to SHH-FAM (2 µM) in reaction buffer (100 mM MES, 20 mM NaCl, 1 mM DTT, 1 mM TCEP, 0.1% (w/v) BSA, pH 6.5) in a 1:10 (v/v) ratio, respectively. The HHAT/SHH-FAM solution (12 µL/well) was dispensed into a black 384-well plate (Corning, 3575). The reaction was initiated by addition of Pal-CoA (7.5 µM) in reaction buffer (8 µL/well), and fluorescence anisotropy measured every 1 min for 1 h on an EnVision Xcite 2104 (PerkinElmer).
Measurement used a FITC FP D505fp mirror module, FITC FP 480 nm excitation filter (30 nm bandwidth), FITC FP P-pol 535 nm first emission filter (40 nm bandwidth), and FITC FP S-pol […]
(§1) 535 nm second emission filter (40 nm bandwidth), measurement height = 9.52 mm, 8 flashes/well, PMT gain = 319, and G-factor = 1.09. Fluorescence anisotropy was calculated […]
(§2) Where S is signal in the S-channel, P is signal in the P-channel, and G is the G-factor.
(§3) Assay data were evaluated using Microsoft Excel 2013 and GraphPad Prism 5.0. Initial rate constants were determined by linear regression, normalized to DMSO negative controls and background corrected to positive controls with solubilization buffer instead of HHAT. The half-maximal inhibitory concentration (IC 50) was calculated using a 4-parameter sigmoidal dose-response curve fit. Determination of the mechanism of inhibition of IMP -1575 relative to Pal-CoA was performed by fitting equation 2 for a mixed model of inhibition[10] using nonlinear […]
Where v is the observed rate of reaction, Vmax is the maximum rate, [I] is the inhibitor concentration, [S] is the substrate concentration, Km is the substrate concentration at ½ Vmax, […]

human HHAT [2] = target: T1, human HHAT; experiment: Photocrosslinking to purified HHAT, CalFluor-647 CuAAC and in-gel fluorescence; format: binding; conditions: for crosslinking of probe to HHAT (in-gel fluorescence): probe 10 μM, purified HHAT, UV 365 nm 1 min
Excerpt: These new insights led to design of photocrosslinking chemical probes 10 and 11 to investigate the small‐molecule binding site in HHAT (Figure 2 A). In probe 10 the secondary amine moiety was exchanged for a diazirine group, and the terminal alkyl chain replaced with an alkyne; probe 11 contains an additional carbon between the carbonyl and diazirine. The diazirine allows photoactivated chemical crosslinking to nearby residues in HHAT, with the alkyne allowing biorthogonal functionalization via copper(I)‐catalyzed azide‐alkyne cycloaddition (CuAAC, “click chemistry”) for subsequent analysis. […] The sidechains were synthesized and coupled to 2 (Scheme S4,5). […] Protein crosslinking was next investigated through CuAAC functionalization with a fluorophore and in‐gel fluorescence readout. As an integral membrane protein, HHAT presents substantial challenges in sample handling and cannot be precipitated to remove excess fluorophore which otherwise binds non‐specifically (data not shown). Fluorogenic azide CalFluor‐647 (Figure S8) ^[18] was therefore used to reduce background fluorescence from dye that had not reacted with alkyne probe. 10 or 11 (10 μM) were incubated with purified HHAT with or without UV irradiation (1 min). […]
Molecule for alignment. Compounds 1-9 (R)-enantiomers and IC50 values from the Acyl-cLIP assay were used as a Training Set . For the purpose of analysis of weakly active inhibitors, […]
Conformation Hunt was set to Normal, Alignment set to Normal, and Build Model set to Field
QSAR. Probes 10 and 11 were used as a Prediction Set .
Photoactivation Analysis by LC/MS
A solution of 10 or 11 (100 μM) in water was cooled on ice and irradiated using a custom-made UV light source (365 nm, 25 mW/cm2) for the indicated times. […]
All steps were performed in the dark in a cold room (4 °C), until specified otherwise. […] The gel was run until the loading dye had eluted from the gel (typically 55 min at 200 V) and the in-gel fluorescence […]
recorded (Excitation: 635 nm Emission: 669 nm) on a Typhoon FLA 9500 (GE Healthcare). […]

human HHAT [3] = target: T1, human HHAT; experiment: Acyl-cLIP inhibition kinetics at varying Pal-CoA concentrations (mixed model of inhibition); format: biochemical
Experimental: IMP‐1575 (50–0.023 μM) was therefore analyzed for effects on HHAT kinetics at varying Pal‐CoA concentrations (50–0.19 μM, Figure 3 B,C).
as §1, §2, §3
Where v is the observed rate of reaction, Vmax is the maximum rate, [I] is the inhibitor concentration, [S] is the substrate concentration, Km is the substrate concentration at ½ Vmax, Ki is the affinity of the inhibitor for the free enzyme, and α is the ratio of the affinity of the inhibitor for the enzyme-substrate complex (Ki’) to Ki (typically noted as Ki’/Ki).
Density-Functional Theory Modelling
Density-functional theory (DFT) predictions were performed using Gaussian 16 [11] and Orca (version 4.0.1.2).[12] The compound 6 structure was initially created using Avogadro software (1.2.0) and geometry -optimised using an MMFF94s force field. Avogadro was also employed to explore conformers of the structure using a “systematic rotor search”. DFT geometry optimisations were initially carried out on the MMFF94s optimised structures using either the 6-31G basis set (for the B3LYP and M062X functionals) or the def2/SVP basis set (for the CAM-B3LYP functional). Structures were then optimised with a higher -level basis set (6-311++G(d,p), for the B3LYP and M062X functional, and def2/TZVP for the CAM-B3LYP functional). […]

[4] = Photoactivation analysis by LC/MS under UV irradiation (365 nm); format: physicochemical; conditions: 100 μM in water on ice
HHAT = target: HHAT; parameters: method as in PMID 23416332; conditions: reported as noncompetitive with Pal-CoA; cited from earlier work

Row | SMILES | HHAT inhibition (in words) (human HHAT [1]) | pIC50 (human HHAT [1]) | also measured
1 | Cc1cccc(C2c3ccsc3CCN2C(=O)CNCC(C)C)n1 (single isomer, unassigned; (-)) [(-)-6] | no HHAT inhibition | < 4.30 | –
2 | Cc1cccc([C@H]2c3ccsc3CCN2C(=O)CNCC(C)C)n1 [(+)-6] | – | 6.12 | competition of probe 11 crosslinking to HHAT (human HHAT [2]; 40-fold excess IMP-1575 (400 μM) vs probe 11 (10 μM)): reduced crosslinking to near background levels; pKi (human HHAT [3]; competitive with respect to Pal-CoA, IMP-1575 50-0.023 μM, Pal-CoA 50-0.19 μM, mixed model fit): 7.42; mode of inhibition with respect to Pal-CoA (human HHAT [3]; mixed model analysis): competitive; α (mixed model equation for inhibition) (human HHAT [3]; ratio Ki'/Ki, with respect to Pal-CoA): 470; potency compared to (+/-)-6 (human HHAT [1]; from Acyl-cLIP IC50): two‐fold increased potency
3 | Cc1cccc(C2NCCc3sccc32)n1 (stereo not shown) [Compound 2] | no inhibition | < 4.30 | –
4 | CC(=O)N1CCc2sccc2C1c1cccc(C)n1 (stereo not shown) [Compound 3] | – | 4.89 | –
5 | CC[C@H](C)CNCC(=O)N1CCc2sccc2C1c1cccc(C)n1 (stereo partly shown) [Compound 4] | – | 5.43 | fold reduced potency compared to 1 (human HHAT [1]; from Acyl-cLIP IC50): ≈ 2 fold
6 | Cc1cccc(C2c3ccsc3CCN2C(=O)CNCCC(C)C)n1 (stereo not shown) [Compound 5] | – | 5.24 | –
7 | Cc1cccc(C2c3ccsc3CCN2C(=O)CNCC(C)C)n1 (stereo not shown) [Compound 6] | – | 5.89 | –
8 | Cc1cccc(C2c3ccsc3CCN2C(=O)CN(C)CC(C)C)n1 (stereo not shown) [Compound 7] | substantially reduced activity | ~4.60 | –
9 | Cc1cccc(C2c3ccsc3CCN2C(=O)CN2CCCC(C)C2)n1 (stereo not shown) [Compound 8] | substantially reduced activity | ~4.30 | –
10 | Cc1cccc(C2c3ccsc3CCN2C(=O)NCCC(C)C)n1 (stereo not shown) [Compound 9] | substantially reduced activity | ~4.30 | –
11 | C#CCCC1(CC(=O)N2CCc3sccc3C2c2cccc(C)n2)N=N1 (stereo not shown) [Compound 10] | – | 4.80 | crosslinking of probe to HHAT (in-gel fluorescence) (human HHAT [2]): minimal crosslinking; also recorded: minimal labelling; activation half-life [4]: 3.3 min
12 | C#CCCC1(CCC(=O)N2CCc3sccc3C2c2cccc(C)n2)N=N1 (stereo not shown) [Compound 11] | – | 5.62 | crosslinking of probe to HHAT (in-gel fluorescence) (human HHAT [2]): crosslinking of probe 11 to HHAT promoted by UV irradiation; also recorded: enhanced labelling with UV irradiation; activation half-life [4]: 0.533 min
13 | CCC(C)CNCC(=O)N1CCc2sccc2C1COc1cccc(C)c1 (stereo not shown) [RUSKI-43] | – | – | pKi (HHAT): 5.16
